Where “and” joins values, the source holds several entries; their conditions need not be identical. Equal entries are not always repeated.
Columns and labels:
[1] = tested on: BxPc-3 pancreatic xenograft; assay: Antitumor activity in BxPc-3 tumor model; format: in vivo, mice; details: oral 25 mg/kg once a day for 14 days
H23 NSCL xenograft = assay: Antitumor activity in H23 tumor model; format: in vivo, mice; details: oral 25 mg/kg once a day for 14 days
panel of 27 kinases = assay: Specificity against a panel of 27 kinases; details: 10 μM
[2] = Maximum tolerated dose and lethality in mice
pERK in tumor biopsies = assay: Immunohistochemical analysis of pERK in paired tumor biopsies; details: for pERK Post-Treatment: H-score
[3] = 1 mg BID, melanoma, individual patients
[4] = 1 mg QD, breast, individual patient
[5] = 1 mg QD, melanoma, individual patients
[6] = 2 mg BID, colon, individual patient
[7] = 2 mg BID, lung, individual patient
[8] = 2 mg BID, melanoma, individual patients
[9] = 4 mg BID, lung, individual patient
[10] = 4 mg BID, melanoma, individual patient
[11] = 8 mg BID, breast, individual patient
[12] = 15 mg BID, breast, individual patient
[13] = 15 mg BID, melanoma, individual patient
[14] = 20 mg BID continuous, melanoma, individual patients
[15] = 20 mg BID, melanoma, individual patient
[16] = 30 mg BID, colon, individual patient
[17] = 30 mg BID, melanoma, individual patients

SMILES: O=C(NOC[C@H](O)CO)c1ccc(F)c(F)c1Nc1ccc(I)cc1F [Compound 1, N-[(R)-2,3-dihydroxy-propoxy]-3,4-difluoro-2-(2-fluoro-4-iodo-phenylamino)-benzamide]
- CR (complete responder) [1]: 2/10
- PR (partial responder) [1]: 8/10
- T − C [1]: 20.6 days
- Tumor Free [1]: 0/10
- CR (complete responder) (H23 NSCL xenograft): 0/8
- PR (partial responder) (H23 NSCL xenograft): 1/8
- T − C (H23 NSCL xenograft): 13.9 days
- Tumor Free (H23 NSCL xenograft): 0/8
- inhibition of panel of 27 kinases (panel of 27 kinases): completely refractory to inhibition
- MTD at 14 days ([2]; BALB/c and SCID, mouse, in vivo, po): 25 mg/kg/day and 25 mg/kg
- deaths or weight loss ([2]; mice, 25 mg/kg oral daily for 14 days): no deaths or weight loss
- LD10 ([2]; mice, IV regimen): 100 mg/kg
- Deaths ([2]; mice, oral daily dosing of 50 mg/kg, sixth day of treatment): 5 out of 8
- pERK % Reduction from Baseline (pERK in tumor biopsies; [3]): −65% and 0%
- pERK % Reduction from Baseline (pERK in tumor biopsies; [4]): −4%
- pERK % Reduction from Baseline (pERK in tumor biopsies; [5]): −93% and 0%
- pERK % Reduction from Baseline (pERK in tumor biopsies; [6]): 0%
- pERK % Reduction from Baseline (pERK in tumor biopsies; [7]): −95%
- pERK % Reduction from Baseline (pERK in tumor biopsies; [8]): −97% and −100%
- pERK % Reduction from Baseline (pERK in tumor biopsies; [9]): −100%
- pERK % Reduction from Baseline (pERK in tumor biopsies; [10]): −70%
- pERK % Reduction from Baseline (pERK in tumor biopsies; [11]): −93%
- pERK % Reduction from Baseline (pERK in tumor biopsies; [12]): −9%
- pERK % Reduction from Baseline (pERK in tumor biopsies; [13]): −100%
- pERK % Reduction from Baseline (pERK in tumor biopsies; [14]): −100% and −72% and −18%
- pERK % Reduction from Baseline (pERK in tumor biopsies; [15]): −100%
- pERK % Reduction from Baseline (pERK in tumor biopsies; [16]): −91%
- pERK % Reduction from Baseline (pERK in tumor biopsies; [17]): −4% and −87%
- pERK Post-Treatment (pERK in tumor biopsies; [3]): 45 and 40
- pERK Post-Treatment (pERK in tumor biopsies; [4]): 135
- pERK Post-Treatment (pERK in tumor biopsies; [5]): 3 and 78
- pERK Post-Treatment (pERK in tumor biopsies; [6]): 12
- pERK Post-Treatment (pERK in tumor biopsies; [7]): 8
- pERK Post-Treatment (pERK in tumor biopsies; [8]): 10 and 0
- pERK Post-Treatment (pERK in tumor biopsies; [9]): 0
- pERK Post-Treatment (pERK in tumor biopsies; [10]): 50
- pERK Post-Treatment (pERK in tumor biopsies; [11]): 5
- pERK Post-Treatment (pERK in tumor biopsies; [12]): 150
- pERK Post-Treatment (pERK in tumor biopsies; [13]): 0
- pERK Post-Treatment (pERK in tumor biopsies; [14]): 0 and 23 and 45
- pERK Post-Treatment (pERK in tumor biopsies; [15]): 1
- pERK Post-Treatment (pERK in tumor biopsies; [16]): 3
- pERK Post-Treatment (pERK in tumor biopsies; [17]): 70 and 15

— patent US20060154990A1, “Use of MEK inhibitors in treating abnormal cell growth” (AGOURON PHARMACEUTICALS, INC., priority 2004, published 2006)
